According to patent US12201633B2, “Compounds and methods for treatment of visceral pain” (Arena Pharmaceuticals, Inc., priority 2017, dated 2025):

Tests used:
[1] = target: T1, human CB2 receptor (Homo sapiens, UniProt P34972); experiment: GPCR signaling assay, recombinant human CB2; format: cell-based
[2] = target: T2, recombinant CB2 receptors (rat) (Rattus norvegicus, UniProt Q9QZN9); experiment: GPCR signaling assay, recombinant rat CB2; format: cell-based; conditions: GPCR signaling assays, recombinant receptor
T2 sequence (Q9QZN9 1-360): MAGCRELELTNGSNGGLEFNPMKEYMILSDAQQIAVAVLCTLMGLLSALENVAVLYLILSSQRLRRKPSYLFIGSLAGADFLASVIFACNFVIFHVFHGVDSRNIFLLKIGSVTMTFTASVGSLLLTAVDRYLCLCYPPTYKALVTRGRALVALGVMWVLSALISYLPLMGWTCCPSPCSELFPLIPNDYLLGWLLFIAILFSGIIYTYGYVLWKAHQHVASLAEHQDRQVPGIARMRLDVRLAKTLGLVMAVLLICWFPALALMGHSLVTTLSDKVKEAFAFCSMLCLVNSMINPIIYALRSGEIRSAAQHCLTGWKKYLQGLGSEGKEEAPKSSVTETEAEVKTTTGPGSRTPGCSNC
Protocol: (§1) The binding affinity, potency, and selectivity of Compound A for recombinant CB2 receptors were determined using radioligand binding assays and GPCR signaling assays.

[3] = target: T3, recombinant CB2 receptors (dog) (Canis lupus familiaris, UniProt E2RKA3); experiment: GPCR signaling assay, recombinant dog CB2; format: cell-based; conditions: GPCR signaling assays, recombinant receptor
T3 construct: other: GPCR signaling assays, recombinant receptor
T3 sequence (E2RKA3 1-360): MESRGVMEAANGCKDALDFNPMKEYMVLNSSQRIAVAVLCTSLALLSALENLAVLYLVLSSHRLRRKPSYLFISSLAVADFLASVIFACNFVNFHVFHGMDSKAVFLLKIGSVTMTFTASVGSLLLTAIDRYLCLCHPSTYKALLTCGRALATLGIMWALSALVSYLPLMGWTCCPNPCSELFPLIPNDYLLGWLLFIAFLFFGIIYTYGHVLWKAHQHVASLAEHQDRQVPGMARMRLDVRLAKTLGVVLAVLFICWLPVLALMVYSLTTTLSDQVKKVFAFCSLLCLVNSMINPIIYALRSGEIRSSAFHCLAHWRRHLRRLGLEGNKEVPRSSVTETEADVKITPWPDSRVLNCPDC
Protocol: as §1

[4] = target: T4, hCB1 (Homo sapiens, UniProt P21554); experiment: Interaction with recombinant human CB1; conditions: test concentrations up to 10 μM
T4 sequence (P21554 whole entry): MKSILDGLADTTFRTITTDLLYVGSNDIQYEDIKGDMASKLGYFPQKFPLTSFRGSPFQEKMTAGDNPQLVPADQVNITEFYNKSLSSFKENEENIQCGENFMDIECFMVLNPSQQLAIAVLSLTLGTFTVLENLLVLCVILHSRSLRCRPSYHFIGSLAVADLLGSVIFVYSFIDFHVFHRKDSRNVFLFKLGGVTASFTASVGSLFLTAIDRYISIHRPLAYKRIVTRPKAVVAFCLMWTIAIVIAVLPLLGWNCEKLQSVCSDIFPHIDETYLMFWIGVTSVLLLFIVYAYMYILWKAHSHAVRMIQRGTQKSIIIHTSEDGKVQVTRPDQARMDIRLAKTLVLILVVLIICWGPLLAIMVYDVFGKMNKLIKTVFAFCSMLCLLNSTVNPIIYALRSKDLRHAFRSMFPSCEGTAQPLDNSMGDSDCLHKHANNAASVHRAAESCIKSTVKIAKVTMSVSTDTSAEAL

[5] = target: recombinant rat CB1 receptors (Rattus norvegicus, UniProt P20272); experiment: Interaction with recombinant rat CB1; conditions: test concentrations up to 10 μM
Chain of recombinant rat CB1 receptors (P20272 whole entry): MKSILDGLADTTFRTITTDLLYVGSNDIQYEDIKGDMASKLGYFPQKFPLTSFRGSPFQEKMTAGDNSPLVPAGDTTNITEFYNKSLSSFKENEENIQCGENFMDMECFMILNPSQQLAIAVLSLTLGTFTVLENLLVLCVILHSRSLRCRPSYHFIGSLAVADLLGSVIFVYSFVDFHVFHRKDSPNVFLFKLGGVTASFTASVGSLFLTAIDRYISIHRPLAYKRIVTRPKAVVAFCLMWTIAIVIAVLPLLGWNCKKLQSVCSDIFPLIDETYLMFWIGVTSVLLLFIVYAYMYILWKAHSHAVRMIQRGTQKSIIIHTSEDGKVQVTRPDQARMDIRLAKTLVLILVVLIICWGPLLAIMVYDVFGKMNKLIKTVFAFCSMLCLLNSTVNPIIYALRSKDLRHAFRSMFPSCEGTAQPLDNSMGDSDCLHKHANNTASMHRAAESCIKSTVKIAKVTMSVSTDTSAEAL

[6] = tested on: recombinant dog CB1 receptors; experiment: Interaction with recombinant dog CB1; conditions: test concentrations up to 10 μM
[7] = tested on: male Sprague-Dawley rats, STZ-induced PDPN; experiment: Streptozotocin-induced painful diabetic peripheral neuropathy (PDPN) model; format: in vivo, rat; conditions: 10 mg/kg orally in 0.5% methylcellulose; 1, 4 and 6 hours post-dosing; FIG. 9, FIG. 10
Protocol: Male Sprague-Dawley rats were injected intraperitoneally with 50 mg/kg of streptozotocin (STZ) in sodium citrate buffer. 10% sucrose water was provided ad libitum for the first 48 hours post-STZ followed by regular drinking water. Rats were monitored once weekly for blood glucose levels and body weights. Development of tactile allodynia over time was analyzed using Von Frey filaments and a 50% withdrawal threshold was determined using Dixon's up-down procedure. […] Tactile allodynia was evaluated at 1, 4 and 6 hours post-dosing.

[8] = tested on: Sprague Dawley rats, acetic acid-induced writhing; experiment: Acetic acid-induced writhing model of visceral pain; format: in vivo, rat; conditions: 3, 10, 30 mg/kg PO, acetic acid 1.5% IP; FIGS. 11 and 12
Protocol: Writhing is induced in male Sprague Dawley rats by administering glacial acetic acid (1.5%) intraperitoneally (IP). […] On test day, rats are placed in observation cages and administered compound according to the schedules in Tables D, F, H, and J. Treatment groups are as provided in Tables E, G, I, and K.
Studies are performed to evaluate single dose assessment (Tables D and E), maintenance of efficacy after repeated administration (Tables F and G), antagonist interactions (Tables H and I), and dose response (Tables J and K).
Writhing behavior is scored for 30 minutes in five-minute time bins.
Writhing behavior was evaluated 20 minutes later and recorded for 30 minutes (in five-minute bins).

[9] = tested on: rats with TNBS-induced colitis and healthy rats; experiment: Visceral pain model of colitis: visceromotor response to colorectal distension after TNBS; format: in vivo, rat
Protocol: Rats with active colitis display allodynia and hyperalgesia to colorectal distension following the administration of trinitrobenzene sulfonic acid (TNBS).
Abdominal electromyographic (EMG) electrode implantation is followed by measurement of visceromotor response (VMR) at 0, 20, 40, 60, and 80 mmHg of colorectal distention on day 4. The effect of each treatment on colonic compliance is also determined.
Abdominal EMG electrode implantation is followed by measurement of VMR at 0, 20, 40, 60, and 80 mmHg of colorectal distention on day 4. The effect of each treatment on colonic compliance is also determined.

[10] = tested on: capsaicin-induced hyperalgesia and allodynia; conditions: topical administration, humans; cited from earlier work
[11] = tested on: rodents, models of inflammatory pain; conditions: systemic delivery; cited from earlier work
[12] = tested on: rats following ligation of spinal nerves; conditions: local (subcutaneous) or systemic administration; cited from earlier work
[13] = target: T4, hCB1; experiment: Radioligand binding assay, hCB1; conditions: Table C
[14] = target: T1, human CB2 receptor; experiment: Radioligand binding assay, hCB2; set-up: 93-0164 (CHO-K1 EA-Arrestin parental line); host or cells: CHO-K1 EA-Arrestin, clone #61; conditions: Table C
Protocol: Preparation of Membranes: HTEK293 cells stably expressing human CB2 receptor were collected, washed in ice cold PBS, and centrifuged at 48,000×g for 20 min at 4° C. The cell pellet was then collected, resuspended in wash buffer (20 mM HEPES, pH 7.4 and 1 mM EDTA), homogenized on ice using a Brinkman Polytron, and centrifuged at 48,000×g for 20 min at 4° C. The resultant pellet was resuspended in ice cold 20 mM HEPES, pH 7.4, homogenized again on ice, recentrifuged for 20 min at 4° C., and membrane pellets were then stored at −80° C. until needed.
[^3H]CP55,940 and [^3H]WIN55,212-2 Radioligand Binding Assays: Radioligand binding assays for human CB2 receptors were performed using two different agonist radioligands, [^3H]CP55,940 and [^3H]WIN55,212-2 and similar assay conditions. For both assays, nonspecific binding was determined in the presence of 10 mM unlabeled compound. […] Then, 25 μL of BetaScint scintillation cocktail was added to each well, and plates were read in a Packard TopCount scintillation counter.

[15] = target: CB1 (Mus musculus, UniProt P47746); conditions: exogenous administration; cited from earlier work
Chain of CB1 (P47746 whole entry): as the sequence (P20272 whole entry) above, with E95D counted along it

T1 sequence (P34972 whole entry): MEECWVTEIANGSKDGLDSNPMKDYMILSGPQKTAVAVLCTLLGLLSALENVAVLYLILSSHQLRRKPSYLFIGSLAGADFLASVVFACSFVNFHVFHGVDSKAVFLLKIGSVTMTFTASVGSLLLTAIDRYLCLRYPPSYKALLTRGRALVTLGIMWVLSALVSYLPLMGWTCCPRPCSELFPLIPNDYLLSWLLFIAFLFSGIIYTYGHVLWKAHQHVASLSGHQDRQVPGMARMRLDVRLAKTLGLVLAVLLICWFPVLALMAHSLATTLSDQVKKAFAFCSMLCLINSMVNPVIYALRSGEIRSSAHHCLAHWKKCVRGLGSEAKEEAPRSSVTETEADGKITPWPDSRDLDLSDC

## CC(C)(C)[C@@H](CO)NC(=O)c1nn(-c2c[n+]([O-])ccn2)c2c1C[C@@H]1C[C@H]21 [Compound 699, (1aS,5aS)-2-(4-Oxy-pyrazin-2-yl)-1a,2,5,5a-tetrahydro-1H-2,3-diaza-cyclopropa[a]pentalene-4-carboxylic acid ((S)-1-hydroxymethyl-2,2-dimethyl-propyl)-amide]
[1]
  Kind of activity at the CB2 receptor: full agonist
[2]
  EC50: 6 to 8 nM
[3]
  EC50: 6 to 8 nM
[4]
  Interaction with recombinant human CB1 receptors: did not interact
[5]
  Interaction with recombinant rat CB1 receptors: did not interact
[6]
  Interaction with recombinant dog CB1 receptors: did not interact
[7]
  Analgesic efficacy (tactile allodynia, 50% withdrawal threshold): robust and sustained analgesic efficacy over 6 hours
[8]
  Efficacy on writhing behavior: efficacious
[9]; 30 mg/kg oral gavage twice daily for five days
  Response (VMR) in rats with healthy colons: without changing response
[9]; 10 and 30 mg/kg oral gavage twice daily, rats with TNBS-induced colitis
  Colonic hypersensitivity, dose dependence: reducing colonic hypersensitivity in a dose-dependent manner
[9]; 10 or 30 mg/kg oral gavage twice daily for five days, FIG. 13
  Visceral pain response (VMR to colorectal distension), rats with TNBS-induced colitis: reduces the visceral pain response

## CCCCCCC(C)(C)c1cc(O)c2c(c1)OC(C)(C)[C@@H]1CC=C(CO)C[C@@H]21 [HU-210]
[10]
  Capsaicin-induced hyperalgesia and allodynia: attenuates capsaicin-induced hyperalgesia and allodynia

## CN1CCCCC1Cn1cc(C(=O)c2cc([N+](=O)[O-])ccc2I)c2ccccc21 (centres unmarked) [AM1241]
[11]
  Hyperalgesia in carrageenan, capsaicin, and formalin models: suppresses hyperalgesia
[12]
  Tactile and thermal hypersensitivity: reverses tactile and thermal hypersensitivity

## CONC(=O)[C@@H](NC(=O)c1nn(-c2c[n+]([O-])ccn2)c2c1C[C@H]1C[C@@H]21)C(C)(C)C [Compound 755, (1aR,5aR)-2-(4-Oxy-pyrazin-2-yl)-1a,2,5,5a-tetrahydro-1H-2,3-diaza-cyclopropa[a]pentalene-4-carboxylic acid ((S)-1-methoxycarbamoyl-2,2-dimethyl-propyl)-amide]
[13]
  Ki: 1200 nM
[14]
  Ki: 3.8 nM

## CCCCC/C=C\C/C=C\C/C=C\C/C=C\CCCC(=O)NCCCl [arachidonyl-2-chloroethylamide]
[15]
  Effect on pain: reduces pain
